# Measurements taken from ChEMBL document CHEMBL5150061, “Design and Synthesis of Fibroblast Growth Factor Receptor (FGFR) and Histone Deacetylase (HDAC) Dual Inhibitors for the Treatment of Cancer” (J Med Chem, 2022).
# Calls of active or inactive are those of the source. The calls are words filed in the database; no cut-off is given here.
# Legend:
# [1] = molecular target: Histone deacetylase 1 (Homo sapiens, UniProt Q13547); experiment: Inhibition of HDAC1 (unknown origin)
# [2] = molecular target: T1, Protein deacetylase HDAC6 (Homo sapiens, UniProt Q9UBN7); experiment: Inhibition of HDAC6 (unknown origin)
# T1 sequence (Q9UBN7 whole entry): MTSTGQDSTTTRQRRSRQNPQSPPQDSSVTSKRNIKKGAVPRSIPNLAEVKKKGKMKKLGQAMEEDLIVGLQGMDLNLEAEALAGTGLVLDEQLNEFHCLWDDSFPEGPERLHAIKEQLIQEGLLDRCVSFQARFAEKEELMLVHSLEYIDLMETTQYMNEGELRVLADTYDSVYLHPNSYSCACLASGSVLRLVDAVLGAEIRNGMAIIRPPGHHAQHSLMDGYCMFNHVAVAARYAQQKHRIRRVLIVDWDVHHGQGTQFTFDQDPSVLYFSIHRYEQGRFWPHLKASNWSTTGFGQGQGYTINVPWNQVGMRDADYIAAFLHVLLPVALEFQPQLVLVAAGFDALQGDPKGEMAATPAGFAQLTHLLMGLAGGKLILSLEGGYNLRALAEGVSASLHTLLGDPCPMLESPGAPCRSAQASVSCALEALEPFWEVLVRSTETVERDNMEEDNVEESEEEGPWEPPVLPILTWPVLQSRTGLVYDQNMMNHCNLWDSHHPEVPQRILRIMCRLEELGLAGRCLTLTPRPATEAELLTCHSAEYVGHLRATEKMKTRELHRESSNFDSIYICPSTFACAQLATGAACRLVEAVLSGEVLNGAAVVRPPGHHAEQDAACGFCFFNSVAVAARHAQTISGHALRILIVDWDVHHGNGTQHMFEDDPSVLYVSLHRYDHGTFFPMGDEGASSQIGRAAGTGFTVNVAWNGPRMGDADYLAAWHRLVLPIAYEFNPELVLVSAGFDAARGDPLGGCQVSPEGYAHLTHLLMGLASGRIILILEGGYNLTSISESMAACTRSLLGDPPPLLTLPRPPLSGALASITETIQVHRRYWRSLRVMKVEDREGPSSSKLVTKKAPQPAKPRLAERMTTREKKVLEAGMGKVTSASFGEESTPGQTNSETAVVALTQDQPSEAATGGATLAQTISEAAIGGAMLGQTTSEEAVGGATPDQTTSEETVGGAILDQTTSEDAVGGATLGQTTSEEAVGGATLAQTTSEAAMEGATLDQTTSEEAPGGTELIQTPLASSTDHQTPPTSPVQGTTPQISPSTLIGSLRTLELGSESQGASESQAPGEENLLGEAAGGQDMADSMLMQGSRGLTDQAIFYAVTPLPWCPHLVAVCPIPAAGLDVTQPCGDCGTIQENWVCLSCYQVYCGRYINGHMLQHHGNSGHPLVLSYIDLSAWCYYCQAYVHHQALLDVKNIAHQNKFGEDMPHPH
# [3] = cells; assay type: functional, cell-based; settings: Homo sapiens, KATO III, 72 h
# [4] = tested on: SNU-16; settings: Homo sapiens, dose 1-100 nM, time 36.0 hrs
# [5] = tested on: K562; experiment: cells; assay type: functional, cell-based; settings: Homo sapiens, K562, 72 h
# [6] = tested on: SNU-16; settings: Homo sapiens, dose 1-100 nM, time 36.0 hrs; remark: listed apart in the source
# [7] = tested on: HCT-116; experiment: cells; assay type: functional, cell-based; settings: Homo sapiens, HCT-116, 72 h
# [8] = tested on: A2780; experiment: cells; assay type: functional, cell-based; settings: Homo sapiens, A2780, 72 h
# [9] = tested on: SNU-16; experiment: cells; assay type: functional, cell-based; settings: Homo sapiens, SNU-16, 72 h
# [10] = tested on: Jurkat; experiment: cells; assay type: functional, cell-based; settings: Homo sapiens, 72 h
# [11] = tested on: SNU-16; experiment: Induction of apoptosis in human SNU-16 cells assessed as late apoptotic cells at 1 uM incubated for 72 hrs by annexin-V/FITC propidium iodide staining based flow cytometry analysis (reference value: 3.41%); assay type: functional
# [12] = tested on: SNU-16; experiment: Induction of apoptosis in human SNU-16 cells assessed as dead cells at 0.1 uM incubated for 72 hrs by annexin-V/FITC propidium iodide staining based flow cytometry analysis (reference value: […]); assay type: functional
# [13] = tested on: SNU-16; experiment: Induction of apoptosis in human SNU-16 cells assessed as live cells at 0.1 uM incubated for 72 hrs by annexin-V/FITC propidium iodide staining based flow cytometry analysis (reference value: 90.92%); assay type: functional
# [14] = Toxicity in BALB/c nude mouse xenografted with human HCT-116 cells assessed as reduction in body weight at 30 mg/kg/day, po administered for 18 days and measured every 3 days; assay type: organism-based; settings: in vivo, 432 h, time 18 day
# [15] = tested on: SNU-16; experiment: Induction of apoptosis in human SNU-16 cells assessed as live cells at 0.03 uM incubated for 72 hrs by annexin-V/FITC propidium iodide staining based flow cytometry analysis (reference value: 90.92%); assay type: functional
# [16] = tested on: SNU-16; experiment: Induction of apoptosis in human SNU-16 cells assessed as dead cells at 0.03 uM incubated for 72 hrs by annexin-V/FITC propidium iodide staining based flow cytometry analysis (reference value: […]); assay type: functional
# [17] = tested on: SNU-16; experiment: Induction of apoptosis in human SNU-16 cells assessed as early apoptotic cells at 0.3 uM incubated for 72 hrs by annexin-V/FITC propidium iodide staining based flow cytometry analysis (reference value: 3.02%); assay type: functional
# [18] = tested on: SNU-16; experiment: Induction of apoptosis in human SNU-16 cells assessed as early apoptotic cells at 1 uM incubated for 72 hrs by annexin-V/FITC propidium iodide staining based flow cytometry analysis (reference value: 3.02%); assay type: functional
# [19] = tested on: SNU-16; experiment: Induction of apoptosis in human SNU-16 cells assessed as early apoptotic cells at 0.03 uM incubated for 72 hrs by annexin-V/FITC propidium iodide staining based flow cytometry analysis (reference value: 3.02%); assay type: functional
# [20] = tested on: SNU-16; experiment: Induction of apoptosis in human SNU-16 cells assessed as early apoptotic cells at 0.1 uM incubated for 72 hrs by annexin-V/FITC propidium iodide staining based flow cytometry analysis (reference value: 3.02%); assay type: functional
# [21] = tested on: SNU-16; experiment: Induction of apoptosis in human SNU-16 cells assessed as late apoptotic cells at 0.03 uM incubated for 72 hrs by annexin-V/FITC propidium iodide staining based flow cytometry analysis (reference value: 3.41%); assay type: functional
# [22] = tested on: SNU-16; experiment: Induction of apoptosis in human SNU-16 cells assessed as dead cells at 1 uM incubated for 72 hrs by annexin-V/FITC propidium iodide staining based flow cytometry analysis (reference value: […]); assay type: functional
# [23] = tested on: SNU-16; experiment: Induction of apoptosis in human SNU-16 cells assessed as live cells at 1 uM incubated for 72 hrs by annexin-V/FITC propidium iodide staining based flow cytometry analysis (reference value: 90.92%); assay type: functional
# [24] = tested on: SNU-16; experiment: Induction of apoptosis in human SNU-16 cells assessed as late apoptotic cells at 0.3 uM incubated for 72 hrs by annexin-V/FITC propidium iodide staining based flow cytometry analysis (reference value: 3.41%); assay type: functional
# [25] = tested on: SNU-16; experiment: Induction of apoptosis in human SNU-16 cells assessed as dead cells at 0.3 uM incubated for 72 hrs by annexin-V/FITC propidium iodide staining based flow cytometry analysis (reference value: […]); assay type: functional
# [26] = Toxicity in BALB/c nude mouse xenografted with human SNU-16 cells assessed as reduction in body weight at 50 mg/kg/day, ip administered for 18 days and measured every 3 days; assay type: organism-based; settings: in vivo, 432 h, time 18 day
# [27] = tested on: SNU-16; experiment: Induction of apoptosis in human SNU-16 cells assessed as late apoptotic cells at 0.1 uM incubated for 72 hrs by annexin-V/FITC propidium iodide staining based flow cytometry analysis (reference value: 3.41%); assay type: functional
# [28] = tested on: SNU-16; experiment: Induction of apoptosis in human SNU-16 cells assessed as live cells at 0.3 uM incubated for 72 hrs by annexin-V/FITC propidium iodide staining based flow cytometry analysis (reference value: 90.92%); assay type: functional
# [29] = molecular target: Fibroblast growth factor receptor 2 (Homo sapiens, UniProt P21802); experiment: Inhibition of FGFR2 (unknown origin)
# [30] = molecular target: Fibroblast growth factor receptor 4 (Homo sapiens, UniProt P22455); experiment: Inhibition of FGFR4 (unknown origin)
# [31] = molecular target: Fibroblast growth factor receptor 3 (Homo sapiens, UniProt P22607); experiment: Inhibition of FGFR3 (unknown origin)
# [32] = molecular target: T2, Histone deacetylase 8 (Homo sapiens, UniProt Q9BY41); experiment: Inhibition of HDAC8 (unknown origin)
# T2 sequence (Q9BY41 whole entry): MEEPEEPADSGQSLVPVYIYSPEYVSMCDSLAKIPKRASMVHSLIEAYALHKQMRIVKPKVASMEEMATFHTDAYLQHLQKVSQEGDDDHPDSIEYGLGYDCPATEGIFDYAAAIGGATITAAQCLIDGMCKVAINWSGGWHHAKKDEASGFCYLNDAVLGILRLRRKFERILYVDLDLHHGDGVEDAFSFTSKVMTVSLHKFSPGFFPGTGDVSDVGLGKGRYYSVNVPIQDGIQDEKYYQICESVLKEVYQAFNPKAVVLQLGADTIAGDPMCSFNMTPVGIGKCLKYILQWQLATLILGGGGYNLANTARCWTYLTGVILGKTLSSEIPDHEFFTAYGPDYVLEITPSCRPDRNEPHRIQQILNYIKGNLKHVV
# [33] = molecular target: Fibroblast growth factor receptor 1 (Homo sapiens, UniProt P11362); experiment: Inhibition of FGFR1 (unknown origin)
# Sequence of Fibroblast growth factor receptor 1 (P11362 whole entry): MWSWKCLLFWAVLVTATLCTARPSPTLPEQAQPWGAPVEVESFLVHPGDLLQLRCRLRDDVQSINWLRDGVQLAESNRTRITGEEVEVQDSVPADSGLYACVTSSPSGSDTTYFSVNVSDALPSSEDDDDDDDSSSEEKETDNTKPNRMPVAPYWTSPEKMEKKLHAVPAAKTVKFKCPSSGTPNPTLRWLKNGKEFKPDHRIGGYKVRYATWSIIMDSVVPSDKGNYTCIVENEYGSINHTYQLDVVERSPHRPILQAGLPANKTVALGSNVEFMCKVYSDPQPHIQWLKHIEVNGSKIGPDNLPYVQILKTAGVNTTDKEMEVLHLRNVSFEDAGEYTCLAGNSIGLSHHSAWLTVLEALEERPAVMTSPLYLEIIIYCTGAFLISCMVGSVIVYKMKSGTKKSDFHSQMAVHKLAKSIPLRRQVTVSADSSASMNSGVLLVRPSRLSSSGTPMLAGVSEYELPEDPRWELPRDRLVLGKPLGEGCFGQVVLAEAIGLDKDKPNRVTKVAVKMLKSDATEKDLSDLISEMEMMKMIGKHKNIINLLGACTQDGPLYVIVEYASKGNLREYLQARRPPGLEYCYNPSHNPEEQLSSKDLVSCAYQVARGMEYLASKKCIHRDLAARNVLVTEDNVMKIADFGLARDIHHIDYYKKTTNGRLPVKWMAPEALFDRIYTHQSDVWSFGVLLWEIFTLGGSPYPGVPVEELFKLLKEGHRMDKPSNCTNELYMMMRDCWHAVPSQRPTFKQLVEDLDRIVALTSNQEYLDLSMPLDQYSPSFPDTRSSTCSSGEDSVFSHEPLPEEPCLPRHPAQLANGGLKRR
# Sequence of Histone deacetylase 1 (Q13547 whole entry): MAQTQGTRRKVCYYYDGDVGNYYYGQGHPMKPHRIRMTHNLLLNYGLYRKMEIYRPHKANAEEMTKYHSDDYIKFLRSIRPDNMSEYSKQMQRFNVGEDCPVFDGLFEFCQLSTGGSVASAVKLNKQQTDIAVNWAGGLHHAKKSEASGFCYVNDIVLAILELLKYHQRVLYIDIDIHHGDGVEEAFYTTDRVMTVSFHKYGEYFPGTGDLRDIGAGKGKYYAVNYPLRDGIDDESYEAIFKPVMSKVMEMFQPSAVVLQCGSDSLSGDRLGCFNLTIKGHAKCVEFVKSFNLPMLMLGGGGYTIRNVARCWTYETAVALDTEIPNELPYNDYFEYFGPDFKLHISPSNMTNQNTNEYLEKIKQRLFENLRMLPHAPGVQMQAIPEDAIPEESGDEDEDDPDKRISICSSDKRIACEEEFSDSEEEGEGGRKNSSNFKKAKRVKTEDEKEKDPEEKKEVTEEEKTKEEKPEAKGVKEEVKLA
# Sequence of Fibroblast growth factor receptor 4 (P22455 whole entry): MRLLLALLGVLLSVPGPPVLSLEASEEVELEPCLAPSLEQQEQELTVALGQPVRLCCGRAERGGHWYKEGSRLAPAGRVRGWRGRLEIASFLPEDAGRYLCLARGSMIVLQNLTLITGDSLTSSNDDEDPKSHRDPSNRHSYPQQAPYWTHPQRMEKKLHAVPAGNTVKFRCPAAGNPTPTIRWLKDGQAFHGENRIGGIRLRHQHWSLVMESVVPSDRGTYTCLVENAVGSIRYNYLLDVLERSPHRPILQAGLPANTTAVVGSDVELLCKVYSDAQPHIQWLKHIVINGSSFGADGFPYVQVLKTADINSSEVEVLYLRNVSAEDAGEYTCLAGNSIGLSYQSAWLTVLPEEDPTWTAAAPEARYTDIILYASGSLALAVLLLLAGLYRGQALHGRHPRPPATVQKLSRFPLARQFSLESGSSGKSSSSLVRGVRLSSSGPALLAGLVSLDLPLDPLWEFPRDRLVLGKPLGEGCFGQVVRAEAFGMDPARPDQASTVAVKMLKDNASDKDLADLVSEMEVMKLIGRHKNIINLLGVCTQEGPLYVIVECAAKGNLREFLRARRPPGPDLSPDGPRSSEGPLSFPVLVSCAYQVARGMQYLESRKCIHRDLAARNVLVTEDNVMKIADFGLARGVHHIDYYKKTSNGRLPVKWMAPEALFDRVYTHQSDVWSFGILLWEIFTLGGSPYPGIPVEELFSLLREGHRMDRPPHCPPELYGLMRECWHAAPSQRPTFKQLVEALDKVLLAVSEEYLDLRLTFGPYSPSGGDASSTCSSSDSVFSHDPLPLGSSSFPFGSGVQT
# Sequence of Fibroblast growth factor receptor 2 (P21802 whole entry): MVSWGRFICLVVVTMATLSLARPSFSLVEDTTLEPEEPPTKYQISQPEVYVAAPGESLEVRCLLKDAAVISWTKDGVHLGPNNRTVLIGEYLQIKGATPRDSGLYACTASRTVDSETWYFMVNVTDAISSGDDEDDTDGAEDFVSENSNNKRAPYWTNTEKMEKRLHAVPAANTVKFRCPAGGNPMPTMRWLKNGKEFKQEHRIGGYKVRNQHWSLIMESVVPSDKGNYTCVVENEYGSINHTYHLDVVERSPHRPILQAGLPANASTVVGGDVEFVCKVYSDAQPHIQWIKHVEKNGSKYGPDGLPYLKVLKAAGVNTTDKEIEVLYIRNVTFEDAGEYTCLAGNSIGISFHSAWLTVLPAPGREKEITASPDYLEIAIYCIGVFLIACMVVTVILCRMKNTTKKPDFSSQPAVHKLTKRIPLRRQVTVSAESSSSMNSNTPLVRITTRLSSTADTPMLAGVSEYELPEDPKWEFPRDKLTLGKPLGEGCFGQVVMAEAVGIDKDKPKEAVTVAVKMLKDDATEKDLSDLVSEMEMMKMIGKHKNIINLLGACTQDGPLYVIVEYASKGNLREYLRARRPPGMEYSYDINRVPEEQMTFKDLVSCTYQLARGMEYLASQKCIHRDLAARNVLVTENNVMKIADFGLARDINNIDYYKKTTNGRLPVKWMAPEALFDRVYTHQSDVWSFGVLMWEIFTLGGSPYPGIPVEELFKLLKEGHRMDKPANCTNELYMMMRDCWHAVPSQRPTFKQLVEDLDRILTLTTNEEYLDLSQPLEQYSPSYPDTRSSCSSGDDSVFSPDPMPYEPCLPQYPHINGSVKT
# Sequence of Fibroblast growth factor receptor 3 (P22607 whole entry): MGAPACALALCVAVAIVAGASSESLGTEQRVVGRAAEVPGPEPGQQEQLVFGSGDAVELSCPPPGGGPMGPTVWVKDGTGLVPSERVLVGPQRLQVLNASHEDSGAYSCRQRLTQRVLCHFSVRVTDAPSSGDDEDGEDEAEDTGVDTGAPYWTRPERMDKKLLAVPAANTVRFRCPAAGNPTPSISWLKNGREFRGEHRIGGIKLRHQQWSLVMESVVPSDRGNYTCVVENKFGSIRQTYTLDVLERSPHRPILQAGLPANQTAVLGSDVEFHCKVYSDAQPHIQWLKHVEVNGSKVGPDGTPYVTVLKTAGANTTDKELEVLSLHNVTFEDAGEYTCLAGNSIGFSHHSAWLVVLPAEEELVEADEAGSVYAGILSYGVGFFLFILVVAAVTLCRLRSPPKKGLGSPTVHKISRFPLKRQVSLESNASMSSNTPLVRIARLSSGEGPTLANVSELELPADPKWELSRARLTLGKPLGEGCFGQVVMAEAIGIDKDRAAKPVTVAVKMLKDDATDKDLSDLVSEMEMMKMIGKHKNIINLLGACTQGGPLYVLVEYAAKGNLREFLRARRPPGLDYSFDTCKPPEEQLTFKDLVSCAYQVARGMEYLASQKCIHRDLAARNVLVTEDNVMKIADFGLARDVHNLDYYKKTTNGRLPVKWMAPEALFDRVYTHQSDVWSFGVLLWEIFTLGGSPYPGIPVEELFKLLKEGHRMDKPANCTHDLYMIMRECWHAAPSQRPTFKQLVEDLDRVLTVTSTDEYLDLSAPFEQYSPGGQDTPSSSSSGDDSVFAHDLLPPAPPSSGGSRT
smiles,measurement,setting,value
COc1cc(OC)cc(N(CCCCCCC(=O)NO)c2ccc3ncc(-c4cnn(C)c4)nc3c2)c1,IC50,[1],5.8 nM
same,IC50,[2],13 nM
COc1cc(OC)cc(N(CCCCCC(=O)NO)c2ccc3ncc(-c4cnn(C)c4)nc3c2)c1,IC50,[1],2.6 nM
same,IC50,[2],6.3 nM
COc1cc(OC)cc(N(CCNC(C)C)c2ccc3ncc(-c4cnn(Cc5ccc(C(=O)NO)cc5)c4)nc3c2)c1,IC50,[1],> 1000 nM
COc1cc(OC)cc(N(CCNC(C)C)c2ccc3ncc(-c4cnn(CCCCCC(=O)NO)c4)nc3c2)c1,IC50,[1],4.4 nM
COc1cc(OC)cc(N(CC2CC2)c2ccc3ncc(-c4cnn(CCCCCCCC(=O)NO)c4)nc3c2)c1,IC50,[1],172 nM
COc1cc(OC)cc(N(CCNC(C)C)c2ccc3ncc(-c4cnn(CCCC(=O)NO)c4)nc3c2)c1,IC50,[1],653 nM
COc1cc(OC)cc(N(CC2CC2)c2ccc3ncc(-c4cnn(CCCCCC(=O)NO)c4)nc3c2)c1,IC50,[1],77 nM
COc1cc(OC)cc(N(CCNC(C)C)c2ccc3ncc(-c4cnn(C)c4)nc3c2)c1 [ERDAFITINIB],IC50,[3],4 nM
same,inhibition,[4],Dde
same,IC50,[5],3020 nM
same,inhibition,[6],Active
same,IC50,[7],4240 nM
same,IC50,[8],20 nM
same,IC50,[9],0.7 nM
same,IC50,[10],6.81 µM
COc1cc(OC)cc(N(CCNC(C)C)c2ccc3ncc(-c4cnn(CCC(=O)Nc5ccc(C(=O)NO)cc5)c4)nc3c2)c1,IC50,[1],5.7 nM
COc1cc(OC)cc(N(CCNC(C)C)c2ccc3ncc(-c4cnn(CCCCOc5ccc(C(=O)NO)cc5)c4)nc3c2)c1,IC50,[1],160 nM
COc1cc(OC)cc(N(CCNC(C)C)c2ccc3ncc(-c4cnn(Cc5cccc(C(=O)NO)c5)c4)nc3c2)c1,IC50,[1],> 1000 nM
O=C(CCCCCCC(=O)Nc1ccccc1)NO [VORINOSTAT],Activity,[11],15.42%
same,Activity,[12],6.19%
same,Activity,[13],80.33%
same,Activity,[14],Non-Toxic
same,Activity,[15],84.26%
same,Activity,[16],5.77%
same,Activity,[17],2.48%
same,Activity,[18],3.16%
same,Activity,[19],3.12%
same,Activity,[20],3.51%
same,Activity,[21],6.85%
same,IC50,[5],2240 nM
same,Activity,[22],4.21%
same,Activity,[23],77.22%
same,Activity,[24],10.46%
same,Activity,[25],6.4%
same,Activity,[26],Non-Toxic
same,Activity,[27],9.98%
same,Activity,[28],80.66%
COc1cc(OC)cc(N(CC2CC2)c2ccc3ncc(-c4cnn(CCCCC(=O)NO)c4)nc3c2)c1,IC50,[1],177 nM
COc1cc(OC)cc(N(CCNC(C)C)c2ccc3ncc(-c4cnn(CCCOc5ccc(C(=O)NO)cc5)c4)nc3c2)c1,IC50,[1],126 nM
COc1cc(OC)cc(N(CCCCC(=O)NO)c2ccc3ncc(-c4cnn(C)c4)nc3c2)c1,IC50,[1],157 nM
same,IC50,[2],107 nM
COc1cc(OC)cc(N(CC2CC2)c2ccc3ncc(-c4cnn(CCCC(=O)NO)c4)nc3c2)c1,IC50,[1],> 1000 nM
COc1cc(OC)cc(N(CCNC(C)C)c2ccc3ncc(-c4cnn(Cc5ccc(CC(=O)NO)cc5)c4)nc3c2)c1,IC50,[1],> 1000 nM
COc1cc(OC)cc(N(CCNC(C)C)c2ccc3ncc(-c4cnn(CCOc5ccc(C(=O)NO)cc5)c4)nc3c2)c1,IC50,[29],1.9 nM
same,IC50,[1],5.9 nM
same,IC50,[30],1.3 nM
same,IC50,[31],0.62 nM
same,IC50,[32],288 nM
same,IC50,[2],3.4 nM
COc1cc(OC)cc(N(CCNC(C)C)c2ccc3ncc(-c4cnn(CCc5ccc(C(=O)NO)cc5)c4)nc3c2)c1,IC50,[1],69 nM
COc1cc(OC)cc(N(CCNC(C)C)c2ccc3ncc(-c4cnn(CCCCCCCC(=O)NO)c4)nc3c2)c1,IC50,[1],6.3 nM
COc1cc(OC)cc(N(CCNC(C)C)c2ccc3ncc(-c4cnn(Cc5ccc(/C=C/C(=O)NO)cc5)c4)nc3c2)c1,IC50,[3],120 nM
same,IC50,[33],28 nM
same,IC50,[1],47 nM
same,IC50,[5],460 nM
same,IC50,[7],60 nM
same,IC50,[8],60 nM
same,IC50,[9],50 nM
same,IC50,[10],6.38 µM
COc1cc(OC)cc(N(CCNC(C)C)c2ccc3ncc(-c4cnn(CCCCCCCCC(=O)NO)c4)nc3c2)c1,IC50,[1],16 nM
COc1cc(OC)cc(N(CCNC(C)C)c2ccc3ncc(-c4cnn(CCCCCOc5ccc(C(=O)NO)cc5)c4)nc3c2)c1,IC50,[1],273 nM
